Measurements from patent US9458198B1, “Cyclic peptide-based NPR-B agonists” (priority 2009, dated 2016).
Where a SMILES comes first, the peptide text is derived from it. Bridges are numbered along the chain shown (N, C = ends). [ ]: non-standard residue; d: D form. The star is where a group is joined. Hexanoyl = CCCCCC(=O)*

Target: T1, NPR-B (Homo sapiens, UniProt P20594)
T1 construct: a functional assay using endogenously NPR-B expressing GTM-3 cells; endogenous in cells; host or cells: GTM-3 (transformed human trabecular meshwork cells)
T1 sequence (P20594 23-1047): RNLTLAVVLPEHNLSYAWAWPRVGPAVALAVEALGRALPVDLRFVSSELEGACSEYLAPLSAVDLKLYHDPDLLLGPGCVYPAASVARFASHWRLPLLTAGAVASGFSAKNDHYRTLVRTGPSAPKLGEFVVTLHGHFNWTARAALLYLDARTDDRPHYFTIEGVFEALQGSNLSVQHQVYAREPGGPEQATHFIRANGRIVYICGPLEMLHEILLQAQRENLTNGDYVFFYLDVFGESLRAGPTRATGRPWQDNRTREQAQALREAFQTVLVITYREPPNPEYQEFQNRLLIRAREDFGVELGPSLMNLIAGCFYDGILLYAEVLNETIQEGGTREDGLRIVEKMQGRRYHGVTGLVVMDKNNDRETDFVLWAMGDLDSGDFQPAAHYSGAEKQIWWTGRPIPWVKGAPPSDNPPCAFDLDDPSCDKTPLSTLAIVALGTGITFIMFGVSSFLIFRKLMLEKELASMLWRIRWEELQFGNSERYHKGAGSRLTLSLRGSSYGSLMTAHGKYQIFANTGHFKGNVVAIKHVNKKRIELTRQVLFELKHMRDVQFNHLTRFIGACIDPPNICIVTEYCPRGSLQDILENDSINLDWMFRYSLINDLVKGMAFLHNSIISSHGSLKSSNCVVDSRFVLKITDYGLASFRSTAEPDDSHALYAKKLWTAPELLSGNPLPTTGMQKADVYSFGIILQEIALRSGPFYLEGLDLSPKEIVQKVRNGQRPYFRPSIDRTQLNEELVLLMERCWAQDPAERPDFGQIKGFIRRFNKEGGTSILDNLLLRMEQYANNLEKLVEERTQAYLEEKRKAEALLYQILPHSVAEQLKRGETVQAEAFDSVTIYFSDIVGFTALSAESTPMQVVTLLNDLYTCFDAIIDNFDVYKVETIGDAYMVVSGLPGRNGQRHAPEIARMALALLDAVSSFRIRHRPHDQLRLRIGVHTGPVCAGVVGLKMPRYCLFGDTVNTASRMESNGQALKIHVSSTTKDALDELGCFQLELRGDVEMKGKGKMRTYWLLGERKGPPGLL
Experiment: NPR-B induced production of cyclic GMP in GTM-3 cells
Format: cell-based
Details: Activity (group): NPR-B activation, EC50 and Emax (CNP = 100%)
Summary of the method: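 GTM-3 cells with endogenous NPR-B were washed and preincubated 15 min at room temperature in medium with 1 mM IBMX. Compounds were tested at final 45 μM to 20 nM; dose-dependent cGMP production gave Emax and EC50.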

| Compound | EC50 [µM] |
| --- | --- |
| CC[C@H](C)[C@@H]1NC(=O)[C@H](CCCNC(=N)N)NC(=O)[C@H](CC(=O)O)NC(=O)[C@H](CC(C)C)NC(=O)[C@H](CCCCN)NC(=O)[C@H](CC(C)C)NC(=O)CNC(=O)[C@H](Cc2ccccc2)NC(=O)[C@@H](C)NC(=O)[C@@H](NC(=O)CCc2ccccc2)CSSC[C@@H](C(N)=O)NC(=O)[C@H](CO)NC1=O [compound 70] | < 1 |
| CCC(=O)N[C@H]1CSSC[C@@H](C(N)=O)NC(=O)[C@H](CO)NC(=O)[C@H]([C@@H](C)CC)NC(=O)[C@H](CCCNC(=N)N)NC(=O)[C@H](CC(=O)O)NC(=O)[C@H](CC(C)C)NC(=O)[C@H](CCCCN)NC(=O)[C@H](CC(C)C)NC(=O)CNC(=O)[C@H](Cc2ccccc2)NC(=O)[C@@H](C)NC1=O [compound 62] | < 5 |
| CCCCCC(=O)N[C@H]1CSSC[C@@H](C(N)=O)NC(=O)[C@H](CO)NC(=O)[C@H]([C@@H](C)CC)NC(=O)[C@H](CCCNC(=N)N)NC(=O)[C@H](CC(=O)O)NC(=O)[C@H](CC(C)C)NC(=O)[C@H](CCCCN)NC(=O)[C@H](CC(C)C)NC(=O)CNC(=O)[C@H](Cc2ccccc2)NC(=O)[C@@H](C)NC1=O [compound 65] | < 1 |

Same assay, conditions: Activity (group): NPR-B activation, EC50 and Emax (CNP = 100%), GTM-3 cells; group needs both EC50 and Emax criteria, checked A then B then C

| Compound | EC50 [µM] |
| --- | --- |
| CC[C@H](C)[C@@H]1NC(=O)[C@H](CCCNC(=N)N)NC(=O)[C@H](CC(=O)O)NC(=O)[C@H](CC(C)C)NC(=O)[C@H](CCCCN)NC(=O)[C@H](CC(C)C)NC(=O)CNC(=O)[C@H](Cc2ccccc2)NC(=O)[C@@H](C)NC(=O)[C@@H](N)CSSC[C@@H](C(N)=O)NC(=O)[C@H](CO)NC1=O [compound 73] | < 15 |
| CCCCCC(=O)N[C@H]1CSSC[C@@H](C(N)=O)NC(=O)[C@H](CO)NC(=O)[C@H]([C@@H](C)CC)NC(=O)[C@H](CCCNC(=N)N)NC(=O)[C@H](CC(=O)O)NC(=O)[C@H]([C@@H](C)CC)NC(=O)[C@@H]2CCCN2C(=O)[C@H](CC(C)C)NC(=O)CNC(=O)[C@H](Cc2ccccc2)NC(=O)[C@H]2CCCN2C1=O [compound 89] (Hexanoyl-C[dP]FGLPIDRISC-NH2; disulfide 1-12) | < 1 |

Same assay, conditions: GTM-3 cells; group needs both EC50 and Emax criteria, checked A then B then C; read-out: Activity (group): NPR-B activation, EC50 and Emax (CNP = 100%)

| EC50 [µM] | Compound |
| --- | --- |
| < 5 | CC[C@H](C)[C@@H]1NC(=O)[C@H](CCCNC(=N)N)NC(=O)[C@H](CC(=O)O)NC(=O)[C@H](CC(C)C)NC(=O)[C@H](CCCCN)NC(=O)[C@H](CC(C)C)NC(=O)CNC(=O)[C@H](Cc2ccccc2)NC(=O)[C@@H](Cc2c[nH]cn2)NC(=O)[C@@H](NC(=O)[C@@H](N)CCSC)CSSC[C@@H](C(N)=O)NC(=O)[C@H](CO)NC1=O [compound 12] |
| < 5 | CC[C@H](C)[C@@H]1NC(=O)[C@H](CCCNC(=N)N)NC(=O)[C@H](CC(=O)O)NC(=O)[C@H](CC(C)C)NC(=O)[C@H](CCCCN)NC(=O)[C@H](CC(C)C)NC(=O)CNC(=O)[C@H](Cc2ccccc2)NC(=O)[C@H](Cc2c[nH]cn2)NC(=O)[C@@H](NC(=O)[C@@H](N)CCSC)CSSC[C@@H](C(=O)N[C@@H](CO)C(=O)N[C@@H](CCCNC(=N)N)C(N)=O)NC(=O)[C@H](CO)NC1=O [compound 24] (H-MCHFGLKLDRISCSR-NH2; disulfide 2-13) |
| < 5 | CC[C@H](C)[C@@H]1NC(=O)[C@H](CCCNC(=N)N)NC(=O)[C@H](CC(=O)O)NC(=O)[C@H](CC(C)C)NC(=O)[C@H](CCCCN)NC(=O)[C@H](CC(C)C)NC(=O)CNC(=O)[C@H](Cc2ccccc2)NC(=O)[C@@H](C)NC(=O)[C@@H](NC(=O)[C@@H](N)CCSC)CSSC[C@@H](C(N)=O)NC(=O)[C@H](CO)NC1=O [compound 38] |
| < 5 | CC[C@H](C)[C@@H]1NC(=O)[C@H](CCCNC(=N)N)NC(=O)[C@H](CC(=O)O)NC(=O)[C@H](CC(C)C)NC(=O)[C@H](CCCCN)NC(=O)[C@H](CC(C)C)NC(=O)CNC(=O)[C@H](Cc2ccccc2)NC(=O)[C@H](Cc2c[nH]cn2)NC(=O)[C@@H](NC(=O)[C@@H](N)CCSC)CSSC[C@@H](C(=O)N[C@@H](Cc2ccc(O)cc2)C(N)=O)NC(=O)[C@H](CO)NC1=O [compound 6] (H-MCHFGLKLDRISCY-NH2; disulfide 2-13) |
| < 5 | CC[C@H](C)[C@@H]1NC(=O)[C@H](CCCNC(=N)N)NC(=O)[C@H](CC(=O)O)NC(=O)[C@H](C(C)C)NC(=O)[C@H](CCCCN)NC(=O)[C@H](CC(C)C)NC(=O)CNC(=O)[C@H](Cc2ccccc2)NC(=O)[C@@H](C)NC(=O)[C@@H](NC(=O)[C@@H](N)CCSC)CSSC[C@@H](C(N)=O)NC(=O)[C@H](CO)NC1=O [compound 54] (H-MC[dA]FGLKVDRISC-NH2; disulfide 2-13) |
| < 5 | CCCCCC(=O)N[C@H]1CSSC[C@@H](C(N)=O)NC(=O)[C@H](CO)NC(=O)[C@H]([C@@H](C)CC)NC(=O)[C@H](CCCNC(=N)N)NC(=O)[C@H](CC(=O)O)NC(=O)[C@H](CC(C)C)NC(=O)[C@H](CCCCN)NC(=O)[C@H]([C@@H](C)O)NC(=O)CNC(=O)[C@H](Cc2ccccc2)NC(=O)[C@@H](C)NC1=O [compound 100] (Hexanoyl-C[dA]FGTKLDRISC-NH2; disulfide 1-12) |
| < 5 | CC[C@H](C)[C@@H]1NC(=O)[C@H](CCCNC(=N)N)NC(=O)[C@H](CC(=O)O)NC(=O)[C@H](CC(C)C)NC(=O)[C@H](CCCCN)NC(=O)[C@H](CC(C)C)NC(=O)CNC(=O)[C@H](Cc2ccccc2)NC(=O)[C@H]2CCCN2C(=O)[C@@H](NC(=O)[C@@H](N)CCSC)CSSC[C@@H](C(N)=O)NC(=O)[C@H](CO)NC1=O [compound 37] |

| Compound | EC50 [µM] |
| --- | --- |
| CCCCCC(=O)N[C@H]1CSSC[C@@H](C(N)=O)NC(=O)[C@H](CO)NC(=O)C2(CCSCC2)NC(=O)[C@H](CCCNC(=N)N)NC(=O)[C@H](CC(=O)O)NC(=O)[C@H](CC(C)C)NC(=O)[C@H](CCCCN)NC(=O)[C@H](CC(C)C)NC(=O)CNC(=O)[C@H](Cc2ccccc2)NC(=O)[C@@H](C)NC1=O [compound 117] | < 15 |
| CCCCCC(=O)N[C@H]1CSSC[C@@H](C(N)=O)NC(=O)[C@H](CO)NC(=O)[C@H]([C@@H](C)CC)NC(=O)[C@H](Cc2ccc(C(=N)N)cc2)NC(=O)[C@H](CC(=O)O)NC(=O)[C@H](CC(C)C)NC(=O)[C@H](CCCCN)NC(=O)[C@H](CC(C)C)NC(=O)CNC(=O)[C@H](Cc2ccccc2)NC(=O)[C@@H](C)NC1=O [compound 112] | < 15 |
| CC[C@H](C)[C@@H]1NC(=O)[C@H](CCCNC(=N)N)NC(=O)[C@H](CC(=O)O)NC(=O)[C@H](CC(C)C)NC(=O)[C@H](CCCCN)NC(=O)[C@H](CC(C)C)NC(=O)CNC(=O)[C@H](Cc2ccc(Cl)cc2)NC(=O)[C@H](Cc2c[nH]cn2)NC(=O)[C@@H](NC(=O)[C@@H](N)CCSC)CSSC[C@@H](C(N)=O)NC(=O)[C@H](CO)NC1=O [compound 29] | < 15 |

System: human colon adenocarcinoma cells
Experiment: not given
Details: 1 mM, within 24 h; cited from earlier work

| Compound | decrease in cell number |
| --- | --- |
| CC[C@H](C)[C@@H]1NC(=O)[C@H](CCCNC(=N)N)NC(=O)[C@H](CC(=O)O)NC(=O)[C@H](CCSC)NC(=O)[C@H](CCCNC(=N)N)NC(=O)CNC(=O)CNC(=O)[C@H](Cc2ccccc2)NC(=O)[C@@H](NC(=O)[C@H](CO)NC(=O)[C@H](CO)NC(=O)[C@H](CCCNC(=N)N)NC(=O)[C@H](CCCNC(=N)N)NC(=O)[C@H](CC(C)C)NC(=O)[C@@H](N)CO)CSSC[C@@H](C(=O)N[C@@H](CC(N)=O)C(=O)N[C@@H](CO)C(=O)N[C@@H](Cc2ccccc2)C(=O)N[C@@H](CCCNC(=N)N)C(=O)N[C@@H](Cc2ccc(O)cc2)C(=O)O)NC(=O)CNC(=O)[C@H](CC(C)C)NC(=O)CNC(=O)[C@H](CO)NC(=O)[C@H](CCC(N)=O)NC(=O)[C@H](C)NC(=O)CNC1=O [ANP, atrial natriuretic peptide] | up to 97% |
